Results from patent publication US8865237B2, “Method of preparing dialysed extract of fenugreek seeds which induces hypoglycemia, mediated, in part, via stimulation of insulin signaling pathway” (Department of Biotechnology, priority 2006, dated 2014).

Key:
[1] = system: GLUT4 in 3T3-L1 adipocytes; assay: GLUT4 translocation in 3T3-L1 cells (mycGLUT4 ELISA, membrane fractionation); type: cell-based
Method: GLUT4 Translocation Assay in GLUT4 Overexpressing Cell lines. CHO clones expressing insulin receptor and GLUT4eGFP protein were plated on a microscopic chamber slide (ICN, Costa Mesa, Calif.), serum starved in DMEM containing 1 mg/ml BSA for 3 h, followed by treatment with 100 nmol/l insulin or 25 mg/l FSE for 10 and 30 min respectively. Treatment was terminated by keeping the slide on ice and washing with cold PBS. Cells were fixed with 3% para-formaldehyde (PF) in PBS for 15 min at room temperature. GLUT4 translocation was investigated by using LSM confocal microscope (Zeiss LSM 510, Heidelberg, Germany). 3T3-L1 expressing mycGLUT4 were grown in 96 well plated then differentiated to adipocytes, serum starved for 3 h and incubated with insulin or FSE for 10 and 30 min respectively. To examine the specificity of the signaling pathway the cells were pretreated with wortmannin (100 nmol/l) or BIS-1 (100 nmol/l) for 20 min and 1 h respectively. […] The optical absorbance of the supernatant was measured at 414 nm. […]
(§1) Effect of FSE on glucose transport in GLUT4 overexpressing cells. […] CHO cells overexpressing insulin receptor as well as GLUT4 were incubated in the presence of various concentrations of FSE for 30 min and glucose transport was measured by determining the rates 2DG uptake. […]

PKCλ in HepG2 cells = assay: Confocal microscopy analysis of PKC translocation in HepG2 cells; type: cell-based, human; details: HepG2, pretreatment before extract
Method: Confocal microscopy analysis of PKC translocation in HepG2 cells. HepG2 cells were serum starved for 3 h and were treated with either 100 nmol/l insulin for 10 min or 25 mg/l FSE for 30 min. In some wells, cells were pretreated with pharmacological inhibitors before treating with extract. Cells were washed quickly with cold PBS and fixed by treating with 3% paraformaldehyde in PBS Ph 7.4, for 15 min at room temperature, rinsed with PBS three times and quenched with 1% glycine for 10 min. Cells were permeabilised with 0.025% saponin in PBS, for 5 min, blocked with PBS containing 5% FBS for 1 h at room temperature, incubated with anti-PKC antibody for overnight at 4° C. in PBS oontaining 2.5% FBS. Cells were washed four times for 5 min each with PBS. Cells were then incubated with a flourescein isothoicyanate conjugated anti-rabbit antibody for additional 1 h, washed again and mounted using vectashield (Vector Laboratories, Burlingame, Calif.) for visualization by confocal microscopy. Rabbit IgG was used as an isotype control.
Effect of FSE on PKCλ translocation in 3T3-L1 and RepG2 cells. […] To investigate the link between FSE induced 1R phosphorylation and GLUT4 translocation, translocation of PKCλ was studied in both 3T3-L1 and HepG2. […] Wortmannin and bis-1 decreased the fluorescence associated with the membrane.

[2] = system: CHO clones expressing insulin receptor and GLUT4eGFP; assay: Glucose transport (2-DG uptake) in GLUT4 overexpressing CHO cells; type: cell-based; details: wortmannin 20 min or BIS-1 100 nmol/l 1 h, then extract 30 min
Method: Cell Culture In Vitro Studies. […] For preadipocyte differentiation 80% confluent preadipocytes were cultured for 2 days in differentiation medium (DMEM supplemented with 1 μmol/l insulin, 0.5 mmol/l IBMX, 0.25 μmol/l DEX containing 10% FBS) and for 2 days in DMEM supplemented with 1 μmol/l insulin and 10% FBS. Thereafter the cells were grown for an additional 4-5 days in DMEM containing 10% FBS. Media was changed on every second day without any additional supplements. CHO clones expressing insulin receptor and GLUT4eGFP protein were grown in media supplemented with hygromycin additionally (100 μg/ml). Penicillin (100 units/ml) and streptomycin ([…]) were added routinely to cultures and all cell lines were cultivated at 37° C. in a 5% CO2 enriched humidified atmosphere.
Effect of FSE on glucose transport. […] Protein was estimated and the radioactivity incorporated into cells was quantified by scintillation counting (Packard, Albertville, Minn.). Nonspecific uptake, measured in the presence of 10 μmol/l cytochalasin B, was subtracted from all values. […]
as §1

[3] = system: PKCλ in 3T3-L1 adipocytes; assay: PKCλ in plasma membrane fraction of 3T3-L1 adipocytes (immunoblotting); type: cell-based; details: wortmannin 100 nmol/l 20 min, BIS-1 100 nmol/l 1 h
Method: Isolation of plasma membrane fraction and immunoblotting detection of PKCλ and GLUT4 in 3T3-L1 adipocytes. Differentiated 3T3-L1 cells in 100 mm petri dishes were serum starved for 3 h in DMEM supplemented with 0.1% BSA and then treated with 100 nmol/l insulin or […] for 10 min and 30 min respectively. In some cases cells were pre-treated with 100 nmol/l wortmannin, for 20 min or 100 nmol/l BIS-1 for 1 h followed by treatment with extract t for additional 30 min. Plasma membrane fractionation of 3 T3-L1 adipocytes was performed as previously described (28) with slight modifications that 1 mmol/l PMSF, 1 mmol/l Na3VO4 and a cocktail of protease inhibitors were added to the lysis buffers. Equal protein was diluted with 5× Laemmli buffer, electrophoresied by 10% SDS-PAGE and transferred on to a nitrocellulose membrane. The membrane was probed with anti-nPKCλ or anti-GLUT4 antibody.
Effect of FSE on PKCλ translocation in 3T3-L1 and RepG2 cells. […] To investigate the link between FSE induced 1R phosphorylation and GLUT4 translocation, translocation of PKCλ was studied in both 3T3-L1 and HepG2. […] In unstimulated HepG2 cells the immunofluorescence was minimum as visualized by confocal microscopy. […] Wortmannin and bis-1 decreased the fluorescence associated with the membrane.

liver glucokinase (GK) = assay: Liver glucokinase assay in STZ-BALB/cJ mice; type: in vivo
Method: BALB/cJ or Swiss albino mice (male, 8-10 week old) were housed under environmentally controlled conditions (22+/−2° C.) with a 12 h light/dark cycle and had free access to standard rodent pellet food and water. Animals were given 5 daily intraperitoneal (IP) injection of freshly prepared STZ (40 mg/kg in 0.5 mol/l sodium citrate pH 4.5) or AXN (50 mg/kg in 0.9% sodium chloride). Ten hours before the experiments, animals were moved to new cages in which no food was available. AXN injected mice that achieved a glucose level of 200-300 mg/dl and STZ injected mice that achieved a glucose level of 275-400 mg/dl were used as hyperglycemic models in this study. Mice were divided into, diabetic control group, insulin group and FSE group (n=5 in each group). Mice were injected (IP) with vehicle (PBS), insulin (1.5 U/kg) or extract (1, 5 or 15 mg/kg). Blood was collected before injection (0 min), 90 and 240 min after the treatments and serum blood glucose levels were estimated. In some experiments STZ-BALB/cJ mice were sacrificed 90 min after the treatments, and the livers were harvested for analysis. In another set of experiments, AXN-induced Swiss albino diabetic mice were injected with PBS or extract for 5 days (n=5). Blood was collected on day 0, 5, 10 and 15 and body weight was monitored on same day. Acidified insulin from bovine pancreas diluted in PBS was used as a positive test compound in all the experiments. All animal experiments have been performed following the requirement of the committee for the Purpose of Control and Supervision of Experiments on Animals (CPCSEA), Government of India, and after permission of the Institute's Animal Care and Use Committee (IACUC).
Glucokinase assay. Liver samples were homogenized in three volumes of ice cold buffer containing 50 mmol/l Tris-HCl, pH 7.4, 300 mmol/l sucrose, 100 mmol/l KCl, 1 mmol/l EDTA 2.5 mmol/1 mercaptoethanol and centrifuged at 12,000×g for 15 min (12). […] GK activity was calculated as the difference between the glucose phosphorylation capacity at 100 and 0.5 mmol/l glucose. […]

[4] = system: insulin receptor, IRS-1 and p85 subunit of PI3-Kinase in 3T3-L1 adipocytes; assay: Phosphorylation of insulin signaling proteins in 3T3-L1 adipocytes (western blot); type: cell-based; details: 3T3-L1, 25 mg/l FSE or 100 nmol/l insulin
Method: (§2) Effect of FSE on insulin signaling proteins in 3T3-L1 Adipocytes and HepG2 cell lines. Differentiated 3T3-L1 adipocytes or HepG2 cell were serum starved in F-12K medium containing 7 mM glucose and 0.1% BSA for 16 h followed by changing medium to DMEM containing 25 mmol/l glucose and incubated for 1 h. Subsequently the cells were treated with 100 nmol/l insulin or 25 mg/l FSE for 10 min and 30 min respectively. Untreated cells were incubated with PBS. Cells were washed with cold PBS, removed from the plates using a rubber policeman, lysed in lysis buffer (50 mmol/l Tris-HCl pH7.5, 150 mmol/l NaCl, 1% NP-40, 2 mmol/l EGTA, 2 mmol/l Na3VO4, 100 mmol/l Na4P2O7, […], 1 mmol/l PMSF and protease inhibitor cocktail) on ice for 30 min, passed through 261/2G syringe 20 times and finally centrifuged at 15,000×g for 10 min at 4° C. Equal amounts of protein (100 μg) were diluted in 5× Laemmli reducing buffer (250 mmol/l Tris-HCl p 6.8, 10% SDS, 0.5% bromophenol blue, 50% glycerol, 12.5% β-mercaptoethanol) boiled for 5 min at 100° C. and resolved by 8% SDS-PAGE by running proteins below 43 kDa out of the gel. The proteins form the gel were transferred to nitrocellulose membrane using transfer buffer (CAPS buffer pH 10.7 containing 10% methanol) by applying 150 mA current for 2 h. […]

[5] = system: insulin receptor, IRS-1 and p85 subunit of PI3-Kinase in HepG2 cells; assay: Phosphorylation of insulin signaling proteins in HepG2 cells (western blot); type: cell-based, human; details: HepG2, 25 mg/l FSE or 100 nmol/l insulin
Method: as §2

Compound	effect of inhibitor pretreatment on FSE induced GLUT4 translocation ([1]; wortmannin 100 nmol/l 20 min, BIS-1 100 nmol/l 1 h)	effect of inhibitors on fluorescence associated with the membrane (PKCλ in HepG2 cells)	effect of inhibitor pretreatment on FSE stimulated glucose uptake [2]	effect of inhibitor pretreatment on translocation of PKCλ induced by FSE [3]	enhancement of glucose uptake ([1]; 100 nmol/l insulin, under similar experimental conditions) [fold]	enhancement of GK activity compared to diabetic control (liver glucokinase (GK); STZ-diabetic BALB/cJ mice, 90 min, FSE 15 mg/kg) [%]	activation of GK compared to control treated animals (liver glucokinase (GK); diabetic animals, 90 min treatment) [fold]	GK activity (liver glucokinase (GK); liver removed 90 min after treatment, insulin 1.5 U/kg or FSE 15 mg/kg) [nmol/min/mg]	IR-α phosphorylation [4]	IR-α phosphorylation [5]
CN(C)CCCn1cc(C2=C(c3c[nH]c4ccccc34)C(=O)NC2=O)c2ccccc21 [BIS-1]	masked	decreased	abrogated	inhibited	–	–	–	–	–	–
insulin	–	–	–	–	2.5	460	4.5	690.0	did not exhibit	did not exhibit
